According to patent US20160257697A1, “THIOPHENE-SUBSTITUTED TETRACYCLIC COMPOUNDS AND METHODS OFUSE THEREOF FOR THE TREATMENT OF VIRAL DISEASES” (priority 2013, published 2016):
Read-outs that look alike come from different tables or passages of the source.

How the values were obtained:
Experiment in all cases: microbe, parasite or virus in culture
Assay type in all cases: cell-based, Hepatitis C virus (HCV)
HCV replicon 1A = settings: Replicon Assay A
Method in brief: (§1)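 Replicon cells incubated with compound for 3 days in medium with 5% FBS and 0.5% DMSO final. Replicon RNA measured in lysates by multiplex real-time RT-PCR (Neo set) against cyclophilin control, quantified from standard curves of Ct versus log ng replicon total RNA.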

HCV replicon 2B = settings: Replicon Assay A
Method in brief: as §1

HCV replicon 1AY93H = settings: Replicon Assay A
Method in brief: as §1

HCV replicon 1B = settings: Replicon Assay B
HCV replicon 1AQ30D = settings: Replicon Assay B
[1] = Hepatitis C virus, read-out: 2B IC50 (nM), replicon 2B
[2] = Hepatitis C virus, read-out: 1A Y93H IC50 (nM), replicon 1AY93H
[3] = Hepatitis C virus, read-out: 1A Q30D IC50 (nM), replicon 1AQ30D
[4] = read-out: 1A Y93H IC50, replicon 1AY93H
[5] = read-out: 2B IC50, HCV replicon 2B
[6] = read-out: 1A Y93H IC50, HCV replicon 1A Y93H
[7] = read-out: 1A Q30D IC50, HCV replicon 1A Q30D

Row | SMILES | IC50 (HCV replicon 1A; Hepatitis C virus, replicon 1A) [pM] | IC50 (HCV replicon 2B; [1]) [nM] | IC50 (HCV replicon 1AY93H; [2]) [nM] | IC50 (HCV replicon 1B; Hepatitis C virus, replicon 1B) [pM] | IC50 (HCV replicon 1AQ30D; [3]) [nM] | IC50 (HCV replicon 1A; replicon 1A) [pM] | IC50 (HCV replicon 2B; read-out: 2B IC50, replicon 2B) [nM] | IC50 (HCV replicon 1AY93H; [4]) [nM] | IC50 (HCV replicon 2B; [5]) [nM] | IC50 (HCV replicon 1AY93H; [6]) [nM] | IC50 (HCV replicon 1AQ30D; [7]) [nM] | also measured
1 | COC(=O)NC(C(=O)N1[C@@H]2C[C@@H]2C[C@H]1c1ncc(-c2ccc3c(c2)cc2n3C(c3ccc(C4CC4)s3)Oc3cc(-c4cnc([C@@H]5CCCN5C(=O)[C@@H](NC(=O)OC)C(C)C)[nH]4)cc(F)c3-2)[nH]1)C1CCOC(C)(C)C1 (some centres unmarked) [Compound 275] | 1.9 | 0.006 | 0.003 | 3.2 | 0.023 | – | – | – | – | – | – | –
2 | COC(=O)N[C@H](C(=O)N1CCC[C@H]1c1ncc(-c2cc(F)c3c(c2)OC(c2ccc(C(C)(C)O)s2)n2c-3cc3cc(-c4cnc([C@@H]5CCCN5C(=O)[C@@H](NC(=O)OC)C(C)C)[nH]4)ccc32)[nH]1)C(C)C (single isomer, unassigned) [Compound 84] | – | – | – | – | 0.5 | 3.3 | 0.012 | 0.012 | – | – | – | IC50 (HCV replicon 1B; replicon 1B): 2.5 pM
3 | COC(=O)N[C@H](C(=O)N1CCC[C@H]1c1ncc(-c2cc(C)c3c(c2)OC(c2ccc(C4CC4)s2)n2c-3cc3cc(-c4cnc([C@@H]5C[C@H]6C[C@H]6N5C(=O)[C@@H](NC(=O)OC)C(C)C)[nH]4)ccc32)[nH]1)C(C)C (single isomer, unassigned) [Compound 755] | – | – | – | – | – | – | – | – | 0.023 | 0.022 | 0.341 | IC50 (HCV replicon 1A; HCV replicon 1A): 2.8 pM; IC50 (HCV replicon 1B; HCV replicon 1B): 1.9 pM
4 | COC(=O)NC(C(=O)N1CCC[C@H]1c1ncc(-c2ccc3c(c2)cc2n3C(c3ccc(C4CC4)s3)Oc3cc(-c4cnc([C@@H]5CCCN5C(=O)[C@@H](NC(=O)OC)C(C)C)[nH]4)cc(F)c3-2)[nH]1)C(C)(C)F (single isomer, unassigned) [Compound 75] | – | – | – | 3.1 | 0.27 | 3 | 0.041 | 0.021 | – | – | – | –
5 | COC(=O)N[C@H](C(=O)N1CCC[C@H]1c1ncc(-c2cc(F)c3c(c2)OC(c2ccc(-c4ccc(N=[N+]=[N-])cc4)s2)n2c-3cc3cc(-c4cnc([C@@H]5CCCN5C(=O)[C@@H](NC(=O)OC)C(C)C)[nH]4)ccc32)[nH]1)C(C)C (mixture of isomers) [Compound 264] | 3.7 | 0.19 | 0.029 | 4.3 | 0.7 | – | – | – | – | – | – | –
6 | CCc1ccc(C2Oc3cc(-c4cnc([C@@H]5CCCN5C(=O)[C@@H](NC(=O)OC)C(C)C)[nH]4)cc(F)c3-c3cc4cc(-c5cnc([C@@H]6CCCN6C(=O)[C@@H](NC(=O)OC)C6CCOCC6)[nH]5)ccc4n32)s1 (single isomer, unassigned) [Compound 336] | 2.2 | – | – | 1.1 | – | – | 0.128 | 0.062 | – | – | – | IC50 (HCV replicon 1AQ30D; read-out: 1A Q30D IC50, replicon 1AQ30D): 1.5 nM
7 | CCc1ccc(C2Oc3cc(-c4cnc([C@@H]5CCCN5C(=O)[C@@H](NC(=O)OC)C(C)C)[nH]4)cc(F)c3-c3cc4cc(-c5cnc([C@@H]6CCCN6C(=O)[C@H](NC(=O)OC)C6COCC(C)(C)C6)[nH]5)ccc4n32)s1 (some centres unmarked) [Compound 150] | 2.4 | 0.007 | 0.004 | 1.9 | 0.094 | – | – | – | – | – | – | –
8 | COC(=O)N[C@H](C(=O)N1C2CC2C[C@H]1c1ncc(-c2cc(F)c3c(c2)OC(c2ccc(C4CC4)s2)n2c-3cc3cc(-c4cnc([C@@H]5CCCN5C(=O)[C@@H](NC(=O)OC)C5C[C@@H](C)O[C@@H](C)C5)[nH]4)ccc32)[nH]1)C(C)C (single isomer, unassigned) [Compound 554] | – | – | – | – | – | – | – | – | 0.203 | 0.237 | 1.67 | IC50 (HCV replicon 1A; HCV replicon 1A): 26.8 pM; IC50 (HCV replicon 1B; HCV replicon 1B): 22.6 pM
9 | COC(=O)N[C@H](C(=O)N1CCC[C@H]1c1ncc(-c2cc(F)c3c(c2)OC(c2ccc(C(C)C)s2)n2c-3cc3cc(-c4cnc([C@@H]5CCCN5C(=O)[C@@H](NC(=O)OC)C(C)C)[nH]4)ccc32)[nH]1)C(C)C (single isomer, unassigned) [Compound 36] | – | – | – | – | – | 1.7 | – | – | – | – | – | IC50 (HCV replicon 2B; replicon 2B, read-out: 2B IC50): 0.053 nM; IC50 (HCV replicon 1AY93H; replicon 1AY93H, read-out: 1A Y93H IC50): 0.006 nM; IC50 (HCV replicon 1B; replicon 1B): 1.1 pM; IC50 (HCV replicon 1AQ30D; replicon 1AQ30D, read-out: 1A Q30D IC50): 0.19 nM
10 | COC(=O)N[C@H](C(=O)N1CCC[C@H]1c1ncc(-c2cc(C)c3c(c2)OC(c2ccc(C4CC4)s2)n2c-3cc3cc(-c4cnc([C@@H]5C[C@H]6C[C@H]6N5C(=O)[C@@H](NC(=O)OC)C5CCOCC5)[nH]4)ccc32)[nH]1)C(C)C (single isomer, unassigned) [Compound 762] | – | – | – | – | – | – | – | – | 0.0048 | 0.005 | 0.025 | IC50 (HCV replicon 1A; Hepatitis C virus, HCV replicon 1A): 2 pM; IC50 (HCV replicon 1B; Hepatitis C virus, HCV replicon 1B): 3 pM
